The results in this text go back to publication PMC11285769, “A pan-respiratory antiviral chemotype targeting a transient host multi-protein complex” (Open Biology, 2024).

Data set [1] deals with FLUV A/WSN/33. The data set can be described thus: microbe, parasite or virus in culture. Conditions: Influenza A virus, MDCK; for IC50: read-out: IC50 (figure 2a). It is filed as cell-based, influenza A/WSN/33.
In data set [2] the test system is HRV-16. The experiment in a line: HRV assay in H1-HeLa cells by TCID50. It is filed as cell-based, human rhinovirus 16. Conditions: Rhinovirus A.
Data set [3] relates to swine influenza virus SIC/SK WT. The experiment in a line: microbe, parasite or virus in culture. Format: cell-based. The note with it: MDCK, read-out: PAV-431 EC50.
The test system of data set [4] is bovine coronavirus. The data set can be described thus: microbe, parasite or virus in culture. It is filed as cell-based. The note with it: Betacoronavirus 1, read-out: PAV-431 EC50.
Data set [5] relates to SARS-CoV-2 WA1/2020. The data set can be described thus: microbe, parasite or virus in culture. It is filed as cell-based.
Data set [6] relates to respiratory synctial virus straine A-2. The experiment in a line: microbe, parasite or virus in culture. It is filed as cell-based. The note with it: human respiratory syncytial virus, HEp-2, read-out: PAV-431 EC50.
Data set [7] deals with Nipah virus rNiV-ZsG. The data set can be described thus: microbe, parasite or virus in culture. It is filed as cell-based.
Data set [8] deals with adenovirus serotype 5 strain adenoid 65. The data set can be described thus: microbe, parasite or virus in culture. Format: cell-based. The note with it: unidentified adenovirus, A549, read-out: PAV-431 EC50.
The subject of data set [9] is human cytomegalovirus strain AD69. The data set can be described thus: microbe, parasite or virus in culture. Format: cell-based. The note with it: Human betaherpesvirus 5, H1-HeLa, read-out: PAV-431 EC50.
For data set [10], the system named is rabies virus CVS-11. The data set can be described thus: microbe, parasite or virus in culture. Format: cell-based.
Data set [11] relates to members of Orthomyxoviridae, Coronaviridae, Paramyxoviridae, Adenoviridae, Herpesviridae and Picornaviridae. The experiment in a line: microbe, parasite or virus in culture. It is filed as cell-based. Conditions: Orthoherpesviridae, read-out: EC50 across six respiratory viral families.
The target in data set [12] is hERG channel (Homo sapiens, UniProt Q12809). The experiment in a line: hERG channel inhibition.
In data set [13] the target is 5-HT2B (Homo sapiens, UniProt P41595). The data set can be described thus: CEREP panel off-target: 5-HT2B. Conditions: high concentrations.
The subject of data set [14] is RSV A-2 virus. The data set can be described thus: RSV cotton rat study. It is filed as in vivo. Conditions: cotton rats, 2 mg kg^−1 IP twice daily, days −1 to 4, plaque assay. On the procedure: Female cotton rats, approximately 5 weeks of age, were obtained from Envigo (formerly Harlan), ear-tagged for identification purposes, and allowed to acclimate for >1 week prior to study start. Animals were housed individually. Vehicle or drug (2 mg kg^−1) was administered by an intraperitoneal route twice daily on study days −1 through day 4. On day 0, animals were infected with 1 × 10^5 PFU of RSV A-2 virus originally obtained from ATCC (VR-1540), administered in a 50 µl volume by an intranasal route approximately 2 h after the morning treatment dose. Back titration of the viral stock and diluted inoculum was performed to confirm the titre of the RSV stock used for infection. All inoculations were performed while the animals were under the influence of inhalant anaesthesia. All animals were euthanized on day 5 and the lungs were processed for determination of RSV titres by plaque assay.

Data set [15] concerns p62/SQSTM1. It is filed as cell-based.
For data set [16], the target named is 14-3-3 zeta (YWHAZ) (Homo sapiens, UniProt P63104). It is filed as binding.
For data set [17] the following is noted: rat, in vivo.
The nature of data set [18]: in vivo. The note with it: rat.
Data set [19] can be described thus: Pharmacokinetics, tissue uptake and safety in rats. Conditions: 5 mg kg^−1 IP.
The test system of data set [20] is FLUV nucleoprotein capsid assembly. Format: biochemical, influenza (FLUV).
In data set [21] the test system is BoCoV BRCV-OK-0514-2. The experiment in a line: microbe, parasite or virus in culture. Conditions: Betacoronavirus 1. Format: cell-based, bovine coronavirus.
Data set [22] relates to porcine epidemic diarrhoea virus (PEDV). The data set can be described thus: PEDV pig study. It is filed as in vivo. Conditions: newborn pigs infected with PEDV, 4 mg kg^−1 intramuscular, relative to control. The protocol: 18 litters comprised of 91 individuals of newborn (2–4 days old) crossbred pigs weighing 3 kg were randomized to control (vehicle) or treatment groups. Animals were infected with 1 × 10^5 PFU of PEDV administered orally. Vehicle or drug was administered intramuscular at 4 mg kg^−1 immediately after challenge and again 24 h post-infection. Compound efficacy was determined by survivability. Endpoint of study was 6 days post-infection.

Data set [23] relates to MHV-68. The data set can be described thus: microbe, parasite or virus in culture. The note with it: Murine herpesvirus, BHK-21.
[24] abbreviates: read-out: EC50 against infectious FLUV.
Where [25] appears, read: HRV16, HRV-16, MOI = 5, H1-HeLa cells, TCID50, read-out: EC50.

“Also recorded” adds a separate entry of the source. Where two headings read alike, the source gives them in different places.

Chain of 14-3-3 zeta (YWHAZ) (P63104 whole entry): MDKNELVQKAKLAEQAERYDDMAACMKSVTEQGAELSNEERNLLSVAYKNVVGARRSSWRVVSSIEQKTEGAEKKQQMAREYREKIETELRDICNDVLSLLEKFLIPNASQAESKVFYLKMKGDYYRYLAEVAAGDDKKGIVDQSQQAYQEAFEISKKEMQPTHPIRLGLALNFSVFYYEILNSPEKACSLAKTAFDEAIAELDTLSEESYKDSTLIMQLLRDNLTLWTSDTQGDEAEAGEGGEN
Chain of hERG channel (Q12809 whole entry): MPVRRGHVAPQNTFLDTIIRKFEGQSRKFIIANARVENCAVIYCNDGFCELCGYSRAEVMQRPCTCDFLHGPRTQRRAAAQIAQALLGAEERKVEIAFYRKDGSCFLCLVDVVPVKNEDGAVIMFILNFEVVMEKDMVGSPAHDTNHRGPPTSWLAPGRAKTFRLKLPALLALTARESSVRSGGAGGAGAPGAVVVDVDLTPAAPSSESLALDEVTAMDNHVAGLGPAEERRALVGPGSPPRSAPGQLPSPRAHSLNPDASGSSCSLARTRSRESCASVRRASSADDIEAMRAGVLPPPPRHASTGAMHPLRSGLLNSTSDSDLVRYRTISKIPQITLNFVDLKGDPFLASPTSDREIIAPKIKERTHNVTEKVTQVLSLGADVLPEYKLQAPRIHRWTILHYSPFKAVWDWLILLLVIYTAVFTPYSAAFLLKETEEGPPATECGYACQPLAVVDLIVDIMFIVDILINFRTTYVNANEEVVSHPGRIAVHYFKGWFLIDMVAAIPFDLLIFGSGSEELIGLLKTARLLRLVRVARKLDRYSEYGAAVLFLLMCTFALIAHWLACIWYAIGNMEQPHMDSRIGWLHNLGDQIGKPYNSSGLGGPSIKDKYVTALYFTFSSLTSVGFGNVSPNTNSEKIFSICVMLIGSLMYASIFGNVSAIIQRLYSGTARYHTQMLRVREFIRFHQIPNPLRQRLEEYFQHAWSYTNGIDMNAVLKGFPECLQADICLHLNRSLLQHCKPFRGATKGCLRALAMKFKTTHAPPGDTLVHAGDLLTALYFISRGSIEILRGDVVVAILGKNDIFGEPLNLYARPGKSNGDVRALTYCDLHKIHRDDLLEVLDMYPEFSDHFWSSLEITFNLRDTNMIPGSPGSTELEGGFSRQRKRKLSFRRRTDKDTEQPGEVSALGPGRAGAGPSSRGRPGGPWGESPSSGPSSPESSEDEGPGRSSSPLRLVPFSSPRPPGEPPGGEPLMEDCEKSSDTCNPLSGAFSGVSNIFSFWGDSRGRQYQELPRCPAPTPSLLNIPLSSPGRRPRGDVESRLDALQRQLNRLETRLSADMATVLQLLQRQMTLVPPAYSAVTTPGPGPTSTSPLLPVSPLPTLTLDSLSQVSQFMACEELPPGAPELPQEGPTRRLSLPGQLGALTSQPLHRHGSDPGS
Chain of 5-HT2B (P41595 whole entry, species assumed): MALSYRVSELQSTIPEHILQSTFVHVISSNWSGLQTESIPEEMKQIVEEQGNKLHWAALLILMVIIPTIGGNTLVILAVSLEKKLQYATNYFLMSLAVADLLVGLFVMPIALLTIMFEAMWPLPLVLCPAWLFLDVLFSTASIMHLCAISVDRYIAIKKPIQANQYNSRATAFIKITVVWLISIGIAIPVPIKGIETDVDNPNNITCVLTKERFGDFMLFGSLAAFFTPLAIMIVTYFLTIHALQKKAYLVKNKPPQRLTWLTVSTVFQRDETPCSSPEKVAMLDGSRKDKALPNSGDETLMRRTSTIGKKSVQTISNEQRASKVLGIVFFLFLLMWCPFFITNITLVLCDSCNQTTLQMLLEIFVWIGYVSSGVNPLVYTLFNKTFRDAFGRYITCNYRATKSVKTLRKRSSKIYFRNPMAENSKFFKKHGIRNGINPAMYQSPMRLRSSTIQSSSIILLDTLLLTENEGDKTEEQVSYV

Consider `COc1c(CNC(=O)c2cc(C3CC3)nn2C)cccc1OC(F)(F)F` [PAV-431], for which the EC50 in [1] (read-out: PAV-431 EC50) was 25 nM; in [2] (HRV16, H1-HeLa, read-out: PAV-431 EC50), less than 20 nM; in data set [3], 25 nM; in data set [4], 50 nM; in data set [5] (Severe acute respiratory syndrome coronavirus 2, Vero C1008, read-out: PAV-431 EC50) it was 100 nM; in [6] it was less than 25 nM. In addition, the EC50 in data set [7] (Henipavirus nipahense, read-out: PAV-431 EC50) was not above 50 nM; in data set [8], less than 100 nM; in data set [9], 25 nM; in data set [10] (Rabies virus CVS-11, read-out: PAV-431 EC50) it was more than 400 nM; in data set [11], not above 100 nM. Further, the “efficacy against SARS-CoV-2 WA 1/2020” value in data set [5] was “significant efficacy”. Moreover, the “activity against Nipah virus” value in data set [7] was “comparably potent”. Further, in data set [10], the “activity against rabies virus” value is recorded as “did not show significant activity against rabies virus”. In addition, the hERG channel inhibition entry in data set [12] is “negative for hERG channel inhibition”. Also, the “off-target effect at 5-HT2B” value in data set [13] is “potential off-target effects at high concentrations could be relevant”. Further, in [14], the “RSV titre in lungs relative to vehicle” value was “significant drop in viral titre; also recorded: small but statistically significant drop in RSV titre”. Moreover, the “amount of p62 in eluate” value in data set [15] was “restored with PAV-431 treatment”. Moreover, in data set [16], the “14-3-3 binding from PAV-104 resin flowthrough” value is “a substantial amount of the 14-3-3 in the PAV-104 resin flowthrough bound to the PAV-431 resin”. Besides, in data set [17], the clearance entry is given as “quick clearing tendency”. Further, the distribution in brain result in [17] is “good distribution in brain and lungs”. Moreover, in data set [17], the distribution in lungs entry is “good distribution in brain and lungs”. Also, in data set [17], the distribution in plasma result is “good distribution in plasma”. Besides, in data set [17], the volume of distribution entry was “better volume of distribution than PAV-104”. The concentration in lungs in data set [17] (ip) is listed as 167 nM. This molecule registered a concentration in plasma in data set [17] (ip) of 108 nM. Also, in [17] (po), the “levels obtained, oral route” value is listed as “too low to analyse the PK properties”. Further, the bioavailability in data set [18] amounted to 59%. Further, the safety of dose entry in data set [19] was “found to be safe”.
`COc1cccc(CNC(=O)c2cc(C(C)(C)C)nn2C)c1OC` [PAV-773]: the “assembly of FLUV nucleoprotein into a completed capsid” value in data set [20] is listed as “blocked assembly of FLUV nucleoprotein into a completed capsid in a dose-dependent manner”. The EC50 in data set [1] was less than 1000 nM; in [1] (setting [24]), 177 nM; in data set [21], less than 1000 nM; in [2] (setting [25]) it was less than 1000 nM; in [23] it was less than 1000 nM. Besides, the IC50 in [1] was 176 nM. In addition, in data set [22], the likelihood of survival entry is “significantly increased the likelihood of survival”.
On to `COc1cccc(CNC(=O)c2cc(C3CC3)nn2C)c1OC` [PAV-835], for which the “assembly of FLUV nucleoprotein into a completed capsid” value in data set [20] is given as “blocked assembly of FLUV nucleoprotein into a completed capsid in a dose-dependent manner”. Moreover, the EC50 is less than 1000 nM in data set [1]; 42 nM in [1] (setting [24]); less than 1000 nM in data set [21]; less than 1000 nM in [2] (setting [25]); less than 1000 nM in [23]. The IC50 in data set [1] turned out to be 14.8 nM. In addition, in data set [22], the likelihood of survival entry is “significantly increased the likelihood of survival”.
